Assay results reported in PubChem BioAssay (NCI).
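Assay format: 96-well plates, 48-hour exposure. GI50: concentration for 50% inhibition of growth. The concentration for full growth arrest is given as TGI.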

Legend:
Test in all cases: inhibition of tumour cell growth, NCI panel, 48 h
SW-620 colon = test system: SW-620 colon
A549 NSCLC = test system: A549 NSCLC
COLO 205 colon = test system: COLO 205 colon
BT-549 breast = test system: BT-549 breast
NCI-H460 lung = test system: NCI-H460 lung
NCI-H23 lung = test system: NCI-H23 lung
CAKI-1 renal = test system: CAKI-1 renal
SF-268 CNS = test system: SF-268 CNS
HS 578T breast = test system: HS 578T breast
SK-MEL-2 melanoma = test system: SK-MEL-2 melanoma

Structure (SMILES) | TGI (SW-620 colon) [µM] | TGI (A549 NSCLC) [µM] | TGI (COLO 205 colon) [µM] | TGI (BT-549 breast) [µM] | TGI (NCI-H460 lung) [µM] | TGI (NCI-H23 lung) [µM] | TGI (CAKI-1 renal) [µM] | TGI (SF-268 CNS) [µM] | TGI (HS 578T breast) [µM] | TGI (SK-MEL-2 melanoma) [µM] | GI50 (SW-620 colon) [µM] | GI50 (A549 NSCLC) [µM] | GI50 (COLO 205 colon) [µM] | GI50 (BT-549 breast) [µM] | GI50 (NCI-H460 lung) [µM] | GI50 (NCI-H23 lung) [µM] | GI50 (CAKI-1 renal) [µM] | GI50 (SF-268 CNS) [µM] | GI50 (HS 578T breast) [µM] | GI50 (SK-MEL-2 melanoma) [µM]
C[N+](C)([O-])C12CC3CC(CC(C3)C1)C2 | > 100 | > 100 | 70.9 | > 100 | > 100 | > 100 | > 100 | > 100 | > 100 | > 100 |  |  |  |  |  |  |  |  |  | 
COc1ccc(/C=C2\N=C3N(Cc4ccccc4)C=C(N)N3C2=O)cc1 | > 100 | > 100 | > 100 | > 100 | > 100 | > 100 | > 100 | > 100 | 73 | > 100 |  |  |  |  |  |  |  |  |  | 
Nc1ncnc2c1ncn2CCCNO | > 100 | > 100 | > 100 | > 100 | > 100 | > 100 | > 100 | > 100 | > 100 | > 100 |  |  |  |  |  |  |  |  |  | 
N=C(N)c1ccc(N=Nc2c(O)c(C(=O)Nc3ccccc3)cc3ccccc23)cc1 | > 100 | > 100 | > 76.9 | > 100 | > 75.3 | 76.1 | > 100 | 55.4 | > 85.5 | > 100 |  |  |  |  |  |  |  |  |  | 
CCOC(=O)NC(Nc1ccc(C(=O)O)cc1)(C(F)(F)F)C(F)(F)F | > 100 | > 100 | > 100 | > 100 | > 100 | > 100 | > 100 | > 100 | > 100 | > 100 |  |  |  |  |  |  |  |  |  | 
CC(C)NC(=O)OCCN=C1c2ccccc2C(Br)C(Br)c2ccccc21 (stereo not given) | > 27.3 | 62.4 | 18.9 | 29.3 | 32.4 | 53.8 | 19.7 | 38.7 | 31.4 | > 54.1 |  |  |  |  |  |  |  |  |  | 
CCOC(=O)CCC(C(=O)OCC)n1nnc2cc(Nc3c(C)[n+]([O-])c4cc(Cl)ccc4[n+]3[O-])ccc21 (stereo not given) | > 100 | > 100 | > 100 | > 100 | > 100 | > 100 | > 100 | > 100 | > 100 | > 100 |  |  |  |  |  |  |  |  |  | 
C=C(C)C1CCC2(C)C1CCC1(C)C2CCC2C3(C)C4OC(OC4=O)C(C)(C)C3CCC21C (stereo not given) | > 100 | > 100 | > 100 | > 100 | > 100 | > 100 | > 100 | > 100 | > 100 | > 100 |  |  |  |  |  |  |  |  |  | 
Oc1ccccc1/C=N/c1nc(-c2ccccc2)cs1 | 40 | > 100 | > 100 | > 100 | > 100 | 41.8 | 62.6 | > 100 | > 100 | > 100 | 14 | > 100 | 57.7 | 59.5 | > 100 | 18.4 | 22.5 | 81.1 | 39 | > 100
CC1CC(C)(C)CC(OCCN2CCCCC2)(c2ccccc2)C1 (stereo not given) | 32.5 | 24.6 | 21.8 | 27.8 | 17.5 | 32.6 | 25.5 | 23.9 | 32.4 | 33.4 |  |  |  |  |  |  |  |  |  | 
Cc1cc(C)nc(NS(=O)(=O)c2ccc(NC(=O)c3ccc4nc5ccccc5c(Nc5ccc(S(=O)(=O)N=C(N)N)cc5)c4c3)cc2)n1 | > 100 | > 100 | > 100 | > 100 | > 100 | > 100 | > 100 | > 100 | > 100 | > 100 |  |  |  |  |  |  |  |  |  | 
CCCCCCCCCCCCCCCCOC[C@H](COC(c1ccccc1)(c1ccccc1)c1ccccc1)O[P+](=S)OC (stereo not given in full) | > 100 | > 100 | > 100 | > 100 | > 100 | > 100 | > 100 | > 100 | > 100 | > 100 |  |  |  |  |  |  |  |  |  | 
CN=C1C=C(/N=C2/C=C(N/C(=C\C#N)C(C)(C)O)OC2(C)C)OC1(C)C | > 100 | > 100 | > 100 | > 77.8 | > 100 | > 100 | > 67.1 | > 100 | > 100 | > 82.8 |  |  |  |  |  |  |  |  |  | 
COC(=O)c1sc2c(Cl)c(Cl)sc2c1Cl | > 100 | > 100 | > 100 | > 100 | > 100 | > 100 | > 100 | > 100 | > 100 | > 100 |  |  |  |  |  |  |  |  |  | 
CC(C)(C)OC(=O)N1CCC2(CC1)C(=O)NCN2c1ccccc1 | > 100 | > 100 | > 100 | > 100 | > 100 | > 100 | > 100 | > 100 | > 100 | > 100 |  |  |  |  |  |  |  |  |  | 
COc1ccc(Nc2nc(N)c(C(=O)c3ccco3)s2)cc1 | > 100 | > 100 | > 100 | > 100 | > 53.3 | > 100 | > 100 | > 100 | > 100 | > 83.9 |  |  |  |  |  |  |  |  |  | 
Cc1c(C)c2c(c(N)c1C#N)C(=O)N(NC(=S)Nc1ccccc1)C2=O | > 100 | > 100 | > 100 | > 100 | > 100 | > 100 | 88.1 | > 100 | > 100 | > 100 |  |  |  |  |  |  |  |  |  | 
COc1cc2c(cc1OCCN1CCN(CCOc3cc4c(cc3OC)C(=O)N3CCC[C@H]3C=N4)CC1)N=C[C@@H]1CCCN1C2=O | > 100 | > 100 | > 90.4 | > 79.1 | > 100 | 46 | 49.3 | > 100 | > 100 | 58.7 |  |  |  |  |  |  |  |  |  | 
CCOc1ccc(Nc2nc(N)nc(N)c2N=O)cc1 | > 100 | > 100 | > 100 | > 100 | > 100 | > 100 | 38.5 | > 100 | > 100 | > 100 |  |  |  |  |  |  |  |  |  | 
CC1(O)CC23CC(O)C4(O)C(CC(O)C4(C)C)C(C)(O)C2CCC1C3O (stereo not given) | > 100 | > 100 | > 100 | > 100 | > 100 | > 100 | > 100 | > 100 | > 100 | > 100 |  |  |  |  |  |  |  |  |  | 
COC1=C(OC)C(=O)C(Cc2c(-c3ccccc3)nc3sc(Cl)cn23)=C(C)C1=O | 50.6 | 52 | 33.5 | 30.2 | 40 | 35.8 | 50.3 | 41.2 | 44.3 | 36.5 |  |  |  |  |  |  |  |  |  | 
